Here are results for 15 molecules from PubChem BioAssay (NCI).

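Briefly, cells in 96-well plates were exposed to five compound concentrations for 48 h, and endpoints were estimated by linear interpolation. Abbreviation: GI50, concentration required for 50% inhibition of growth. TGI: total growth inhibition.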 Some results are limits rather than exact numbers.

Test in all cases: NCI anticancer screen, dose series, 48 h
In assay [1] the test system is KM12 colon.
The test system of assay [2] is MALME-3M melanoma.
Assay [3] relates to NCI-H226 lung.
Assay [4] has as its system RPMI-8226 leukemia.
Assay [5] concerns RXF 393 renal.
The subject of assay [6] is SN12C renal.
In assay [7] the test system is SNB-75 CNS.
Assay [8] has as its system UO-31 renal.

In the case of `O=[N+]([O-])c1ccc(C[P+](c2ccccc2)(c2ccccc2)c2ccccc2)cc1`, the TGI in assay [1], in assay [2], in assay [3], in assay [4], in assay [5] and in assay [6] was > 100 µM each time. Moreover, the TGI in assay [7] and in assay [8] was > 100 µM throughout.

Take `CC1=C(c2ccccc2)C(c2ccccc2)=C(c2ccccc2)C2(c3ccccc3)C(=O)C(C)CN12` (stereo not given): the TGI is > 100 µM in assay [1]; > 100 µM in assay [2]; 84.8 µM in assay [3]; > 100 µM in assay [4]; 63.5 µM in assay [5]; > 100 µM in assay [6]. For the same molecule, the TGI was 64.5 µM in assay [7] and > 100 µM in assay [8].

`CCc1ccccc1NC(=O)C1=C(C)NC(C)=C(C(=O)Nc2ccccc2CC)C1c1ccccc1Cl`: the TGI in assay [1], in assay [2], in assay [3], in assay [4], in assay [5] and in assay [6] was > 100 µM each time. For the same molecule, the TGI in assay [7] and in assay [8] was > 100 µM in each case.

`CCCCCCCCCCCc1nnc(N)o1`: the TGI in assay [1], in assay [2], in assay [3], in assay [4], in assay [6] and in assay [7] was > 100 µM throughout. Moreover, the TGI in assay [8] was 38.3 µM.

Regarding `O=C(O)C1=C(O)C(C(=O)O)C23CCCCCCCCCCC12C(C(=O)O)C(O)=C3C(=O)O` (stereo not given), the TGI in assay [1], in assay [2], in assay [3], in assay [4], in assay [5] and in assay [6] was > 100 µM each time. Also, the TGI in assay [8] was > 100 µM.

For the molecule `COC1=C(N)C(=O)c2nc(C)ccc2C1=O`, the TGI in assay [1] is 3.68 µM; in assay [2] it was 3.18 µM; in assay [3] it was 2.33 µM; in assay [4], > 40.8 µM; in assay [5] it was 3.08 µM; in assay [6], 3.27 µM. The TGI in assay [7] came to 3.74 µM; in assay [8] it was 4 µM.

`Cc1nnn[n-]1.N.N.N.N.N.[Cl-].[Co+3]`: the GI50 in assay [1], in assay [2], in assay [3], in assay [4], in assay [5] and in assay [6] was > 100 µM each time. The GI50 in assay [7] and in assay [8] was > 100 µM in each case. In addition, the TGI in assay [1], in assay [2], in assay [3], in assay [4], in assay [5] and in assay [6] was > 100 µM each time. In addition, the TGI in assay [7] and in assay [8] was > 100 µM throughout.

With `COC(=O)CC1C[C@H](C#N)N(C(=O)c2ccccc2)C[C@@H]1CC[N+](=O)[O-]` (stereo not given in full), the TGI in assay [1], in assay [2], in assay [4], in assay [5], in assay [6] and in assay [7] was > 100 µM each time. For the same molecule, in assay [8], the TGI was > 100 µM.

Take `O/N=C1/C(=C/c2ccc3c(c2)OCO3)CCCC1C(NO)c1ccc2c(c1)OCO2` (stereo not given): the TGI in assay [1] was found to be 43.6 µM; in assay [2], 48.2 µM; in assay [4] it was 40.9 µM; in assay [5] it was 55 µM; in assay [6] it was 40.9 µM; in assay [7], 80.1 µM. Further, the TGI in assay [8] came out at 58.5 µM.

Regarding `CS(=O)(=O)OC1CCC2(C#N)CCC1C2=O` (stereo not given), the TGI in assay [1] was > 100 µM; in assay [2] it was > 100 µM; in assay [3], > 100 µM; in assay [4], 44.4 µM; in assay [5], > 100 µM; in assay [6] it was > 100 µM. The TGI in assay [7] and in assay [8] was > 100 µM in each case.

Take `O=C1N(C2CCCCC2)CC12CCCCC2`: the TGI in assay [2], in assay [3], in assay [4], in assay [5], in assay [6] and in assay [7] was > 100 µM in each case. Besides, the TGI in assay [8] was > 100 µM.

Turning to `CN(O)C(=O)SCC(NC(=O)CCC(N)C(=O)O)C(=O)NCC(=O)O` (stereo not given), the GI50 in assay [1] was > 2 µM; in assay [2], > 2000 µM; in assay [3], > 2000 µM; in assay [4], > 2000 µM; in assay [5] it was > 2000 µM; in assay [6] it was > 2000 µM. Besides, the GI50 in assay [7] and in assay [8] was > 2000 µM throughout. Besides, the TGI in assay [1], in assay [2], in assay [3], in assay [4], in assay [5] and in assay [6] was > 2000 µM each time. For the same molecule, the TGI in assay [7] and in assay [8] was > 2000 µM throughout.

Turning to `CC1=C(C(=O)Nc2cc(=O)n(C)c(=O)n2C)C(c2ccco2)C(C(=O)Nc2cc(=O)n(C)c(=O)n2C)=C(C)N1`, the TGI in assay [1], in assay [2], in assay [3], in assay [4], in assay [5] and in assay [6] was > 100 µM throughout. Moreover, the TGI in assay [7] and in assay [8] was > 100 µM throughout.

On to `NC(=O)C(=O)N/N=C1\C(=O)N(c2ccc(Cl)cc2Cl)C(=O)C1C(=O)Nc1ccc(Cl)cc1Cl` (stereo not given), for which the TGI in assay [1], in assay [2], in assay [3], in assay [4], in assay [5] and in assay [6] was > 100 µM throughout. For the same molecule, the TGI in assay [7] and in assay [8] was > 100 µM throughout.

For `O=C(NCCCCNc1cccccc1=O)OCc1ccccc1`, the TGI in assay [1], in assay [2], in assay [3], in assay [4], in assay [6] and in assay [7] was > 100 µM each time. For the same molecule, the TGI in assay [8] was > 100 µM.
